In brackets after ≈: the same amount, converted by molar mass. Activity calls are given as the source filed them. No cut-off for these calls is given here.
What was measured:
C2C12 [1] = assay: Increase in PDGF-BB protein expression level in HIF-1 alpha silenced mouse C2C12 cells at 30 uM by Western blot analysis; assay type: functional, cell-based
[2] = Water solubility of the compound by HPLC analysis
C2C12 [3] = assay: Upregulation of IGF protein expression in mouse C2C12 cells at 30 uM by Western blot analysis; assay type: functional, cell-based
C2C12 [4] = assay: Down regulation of PHD3 mRNA expression in mouse C2C12 cells at 30 uM by qRT-PCR analysis; assay type: functional, cell-based
Mus musculus [5] = assay: Angiogenic activity in diabetic HLI C57BL/6 mouse model assessed as increase in number of alpha-SMA-positive cells at 30 mg/kg, im administered for 21 days followed by surgery by immunofluorescence analysis; assay type: functional, organism-based; settings: time 21.0 day
MOVAS-1 [6] = assay: Angiogenesis activity in mouse MOVAS-1 assessed as increase of cell migration using conditioned medium of mouse C2C12 cells with silenced HIF-1alpha treated at 30 uM under hyperglycemic condition for 12 hrs followed by hypoxia for 24 hrs by crystal violet dye based transwell assay; assay type: functional; settings: time 36.0 hrs
MOVAS-1 [7] = assay: Angiogenesis activity in mouse MOVAS-1 cells assessed as suppression of cell migration using conditioned medium of mouse C2C12 cells with silenced HIF-1alpha treated at 30 uM under hyperglycemic condition for 12 hrs followed by hypoxia for 24 hrs in presence of PDGF-BB inhibitor CP868596 by crystal violet dye based transwell assay; assay type: functional; settings: time 36.0 hrs
C2C12 [8] = assay: Upregulation of EPO protein expression in mouse C2C12 cells at 30 uM by Western blot analysis; assay type: functional, cell-based
C2C12 [9] = assay: Apoptotic rate in hyperglycemia-treated mouse C2C12 cells assessed as late apoptotic cells at 15 uM by AnnexinV-FITC/PI staining based flow cytometric analysis (reference value: 10.44 %); assay type: functional
Mus musculus [10] = assay: Angiogenic activity in diabetic HLI C57BL/6 mouse model assessed as HIF-1alpha protein expression at 30 mg/kg, im administered for 21 days followed by surgery by Western blot analysis; assay type: functional, organism-based; settings: time 21.0 day
C2C12 [11] = assay: Apoptotic rate in hyperglycemia-treated mouse C2C12 cells assessed as necrotic cells at 15 uM by AnnexinV-FITC/PI staining based flow cytometric analysis (reference value: 0.56 %); assay type: functional
C2C12 [12] = assay: Angiogenic activity in mouse C2C12 cells assessed as reversal of hyperglycemia-induced reduction in total cell number at 7.5 uM measured after 24 hrs by EdU-incorporation assay; assay type: functional, cell-based
HUVEC [13] = assay: Induction proliferation of human HUVEC cells assessed as increase in number of EdU-positive cells using conditioned medium of mouse C2C12 cells treated at 30 uM under hyperglycemic condition for 12 hrs followed by hypoxia for 24 hrs by EdU-incorporation assay; assay type: functional; settings: time 36 hrs
[14] = Protein binding in human plasma by balanced dialysis method; assay type: ADME, cell-free; settings: read-out: PPB (converted)
Mus musculus [15] = assay: Antidiabetic activity in diabetic HLI C57BL/6 mouse model assessed as PDGF-BB protein expression at 30 mg/kg, im administered for 21 days followed by surgery by Western blot analysis; assay type: functional, organism-based; settings: time 21.0 day
MOVAS-1 [16] = assay: Induction proliferation of mouse MOVAS-1 assessed as increase in number of EdU-positive cells using conditioned medium of mouse C2C12 cells with silenced HIF-1alpha treated at 30 uM under hyperglycemic condition for 12 hrs followed by hypoxia for 24 hrs by EdU-incorporation assay; assay type: functional, cell-based; settings: time 36.0 hrs
[17] = Microsomal stability in rat liver microsomes assessed as compound remaining after 30 min by HPLC analysis; assay type: ADME, Microsome; settings: read-out: Stability
[18] = Metabolic stability in rat leg muscle homogenates assessed as compound remaining after 30 min by HPLC analysis; assay type: ADME, tissue-based, muscle of leg; settings: read-out: Stability
Mus musculus [19] = assay: Antidiabetic activity in diabetic HLI C57BL/6 mouse model assessed as effect on blood glucose level at 30 mg/kg administered intramuscularly measured after 3 days; assay type: functional, organism-based; settings: time 3.0 day
Mus musculus [20] = assay: Antidiabetic activity in diabetic HLI C57BL/6 mouse model assessed as increase in blood perfusion recovery at 30 mg/kg administered intramuscularly measured after 21 days; assay type: functional; settings: time 21 day
[21] = Efflux ratio of Apparent permeability across basolateral to apical side over apical to basolateral side in human Caco-2 cells
HUVEC [22] = assay: Induction proliferation of human HUVEC cells assessed as increase in number of EdU-positive cells using conditioned medium of mouse C2C12 cells with silenced HIF-1alpha treated at 30 uM under hyperglycemic condition for 12 hrs followed by hypoxia for 24 hrs by EdU-incorporation assay; assay type: functional, cell-based; settings: time 36.0 hrs
C2C12 [23] = assay: Angiogenic activity in mouse C2C12 cells assessed as accumulation VEGF-A protein expression at 300 uM by Western blot analysis; assay type: functional, cell-based
C2C12 [24] = assay: Induction of proliferation of hyperglycemia-induced mouse C2C12 cell death assessed as increase in number of EdU-positive cells at 7.5 to 300 uM pretreated with compound under hyperglycemia condition for 12 hr followed by hypoxia for 24 hrs; assay type: functional, cell-based; settings: dose 7.5-300 µM, time 36.0 hrs
[25] = Toxicity in diabetic HLI C57BL/6 mouse model assessed as lung pathology at 30 mg/kg, IM administered by HE staining based assay; assay type: organism-based; settings: in vivo
C2C12 [26] = assay: Induction of F-actin polymerization in mouse C2C12 cells at 30 uM pretreated with compound for 12 hr followed by hypoxic condition for 24 hrs by phalloidin staining based confocal microscopy; assay type: functional, cell-based; settings: time 36.0 hrs
HUVEC [27] = assay: Angiogenesis activity in human HUVEC cells assessed as increase of cell migration using conditioned medium of mouse C2C12 cells with silenced HIF-1alpha treated at 30 uM under hyperglycemic condition for 12 hrs followed by hypoxia for 24 hrs by crystal violet dye based transwell assay; assay type: functional; settings: time 36.0 hrs
HUVEC [28] = assay: Angiogenesis activity in human HUVEC cells assessed as suppression of cell migration using conditioned medium of mouse C2C12 cells treated at 30 uM under hyperglycemic condition for 12 hrs followed by hypoxia for 24 hrs by crystal violet dye based transwell assay; assay type: functional; settings: time 36.0 hrs
C2C12 [29] = assay: Upregulation of ANG1 protein expression in mouse C2C12 cells at 30 uM by Western blot analysis; assay type: functional, cell-based
C2C12 [30] = assay: Reversal of hyperglycemia-induced PDGF-BB protein level reduction in mouse C2C12 cells measured at 30 uM by ELISA; assay type: functional, cell-based
C2C12 [31] = assay: Reversal of hyperglycemia-induced PDGF-BB protein level reduction in mouse C2C12 cells measured at 30 uM by Western blot analysis; assay type: functional, cell-based
Mus musculus [32] = assay: Antidiabetic activity in diabetic HLI C57BL/6 mouse model assessed as morphological changes at 30 mg/kg administered intramuscularly; assay type: functional, organism-based
Mus musculus [33] = assay: Antidiabetic activity in diabetic HLI C57BL/6 mouse model assessed as effect on blood glucose level at 15 mg/kg administered intramuscular; assay type: functional, organism-based
C2C12 [34] = assay: Angiogenic activity in mouse C2C12 cells assessed as accumulation HIF-1alpha protein expression at 300 uM by Western blot analysis; assay type: functional, cell-based
C2C12 [35] = assay: Upregulation of HGF protein expression in mouse C2C12 cells at 30 uM by Western blot analysis; assay type: functional, cell-based
Mus musculus [36] = assay: Angiogenic activity in diabetic HLI C57BL/6 mouse model assessed as VEGF-A protein expression at 30 mg/kg, im administered for 21 days followed by surgery by Western blot analysis; assay type: functional, organism-based; settings: time 21.0 day
C2C12 [37] = assay: Angiogenic activity in mouse C2C12 cells assessed as reversal of hyperglycemia-induced reduction in total cell number at 30 uM measured after 24 to 36 hrs by EdU-incorporation assay; assay type: functional, cell-based; settings: time 24-36 hrs

COc1ccc(Cc2cccc(O[C@@H]3O[C@H](CO)[C@@H](O)[C@H](O)[C@H]3O)c2)cc1
Activity (C2C12 [1]): inactive | solubility [2]: 1910 µg/mL (≈ 5.07 mM) | Activity (C2C12 [3]): Active | Activity (C2C12 [4]): Active | Activity (Mus musculus [5]): Active | Activity (MOVAS-1 [6]): Active | Activity (MOVAS-1 [7]): inactive | Activity (C2C12 [8]): Active | Activity (C2C12 [9]): 7.61% | Activity (Mus musculus [10]): Active | Activity (C2C12 [11]): 0.38% | Activity (C2C12 [12]): Active | fold change (FC) (HUVEC [13]): 2 | fraction unbound [14]: 0.669 | Activity (Mus musculus [15]): Active | Activity (MOVAS-1 [16]): Active | remaining at 0.5 h [17]: 79.4% | remaining at 0.5 h [18]: 99% | Activity (Mus musculus [19]): Active | Activity (Mus musculus [20]): 80% | efflux ratio [21]: 1.07 | Activity (HUVEC [22]): Active | inhibition (C2C12 [23]): Active | Activity (C2C12 [24]): Active | Activity [25]: Non-Toxic | Activity (C2C12 [26]): Active | Activity (HUVEC [27]): Active | Activity (HUVEC [28]): Active | Activity (C2C12 [29]): Active | Activity (C2C12 [30]): Active | Activity (C2C12 [31]): Active | Activity (Mus musculus [32]): Active | Activity (Mus musculus [33]): Active | inhibition (C2C12 [34]): Active | Activity (C2C12 [35]): Active | Activity (Mus musculus [36]): Active | Activity (C2C12 [37]): inactive

From ChEMBL document CHEMBL5038635, “Discovery of Salidroside-Derivated Glycoside Analogues as Novel Angiogenesis Agents to Treat Diabetic Hind Limb Ischemia” (J Med Chem, 2022)
